Data as given in publication PMC6720883, “In Vitro Inhibitory Effects of APINACA on Human Major Cytochrome P450, UDP-Glucuronosyltransferase Enzymes, and Drug Transporters” (Molecules, 2019).
Read-outs that look alike come from different tables or passages of the source.

How the values were obtained:
CYP3A4 [1] = biological target: T1, CYP3A4 (Homo sapiens, UniProt P08684); assay: Time-dependent inhibition kinetics of CYP3A4 midazolam 1′-hydroxylation in human liver microsomes; assay type: in vitro ADME
T1 sequence (P08684 2-503): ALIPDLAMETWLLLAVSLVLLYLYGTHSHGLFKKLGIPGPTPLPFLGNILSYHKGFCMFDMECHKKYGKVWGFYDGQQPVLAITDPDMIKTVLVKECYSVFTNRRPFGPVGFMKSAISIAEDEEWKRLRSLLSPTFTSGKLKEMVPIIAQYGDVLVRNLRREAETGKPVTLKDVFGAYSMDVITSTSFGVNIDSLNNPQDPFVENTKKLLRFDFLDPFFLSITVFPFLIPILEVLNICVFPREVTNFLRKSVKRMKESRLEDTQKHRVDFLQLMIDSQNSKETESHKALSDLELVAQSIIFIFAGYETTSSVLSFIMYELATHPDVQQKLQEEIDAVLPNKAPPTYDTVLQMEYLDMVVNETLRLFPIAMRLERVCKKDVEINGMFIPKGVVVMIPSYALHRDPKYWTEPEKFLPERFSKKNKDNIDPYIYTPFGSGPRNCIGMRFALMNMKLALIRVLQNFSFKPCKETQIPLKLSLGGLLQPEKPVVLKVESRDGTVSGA
Protocol: The kinetic parameters for the time-dependent inhibition potency of APINACA against human liver microsomal CYP3A4 activity were evaluated. Ultrapooled human liver microsomes (1 mg/mL) were preincubated with various concentrations of APINACA (final concentrations of 1–40 μM) in 50 mM potassium phosphate buffer (pH 7.4) in the presence of NADPH. Aliquots (10 μL) of the preincubated mixtures were withdrawn 5, 10, 20, and 30 min after incubation was commenced and were added to other tubes containing 2 μM midazolam, 1 mM NADPH, 50 mM potassium phosphate buffer (pH 7.4), and 10 mM MgCl2 in 90-μL reaction mixtures. The second reactions were terminated after 10 min by adding 100 μL of ice cold methanol containing d9-1′-hydroxybufuralol. […] Aliquots (5 μL) of the diluted supernatants were analyzed by LC–MS/MS.
(§1) 12.5 (Systat Software, Inc.; San Jose, CA, USA). […] 1.1 (Systat Software, Inc.).

UGT2B7 = UGT2B7 (Homo sapiens, UniProt P16662); assay: Inhibition of UGT2B7-catalyzed naloxone 3-β-D-glucuronidation in human liver microsomes; assay type: in vitro ADME
UGT2B7, sequence (P16662 24-529): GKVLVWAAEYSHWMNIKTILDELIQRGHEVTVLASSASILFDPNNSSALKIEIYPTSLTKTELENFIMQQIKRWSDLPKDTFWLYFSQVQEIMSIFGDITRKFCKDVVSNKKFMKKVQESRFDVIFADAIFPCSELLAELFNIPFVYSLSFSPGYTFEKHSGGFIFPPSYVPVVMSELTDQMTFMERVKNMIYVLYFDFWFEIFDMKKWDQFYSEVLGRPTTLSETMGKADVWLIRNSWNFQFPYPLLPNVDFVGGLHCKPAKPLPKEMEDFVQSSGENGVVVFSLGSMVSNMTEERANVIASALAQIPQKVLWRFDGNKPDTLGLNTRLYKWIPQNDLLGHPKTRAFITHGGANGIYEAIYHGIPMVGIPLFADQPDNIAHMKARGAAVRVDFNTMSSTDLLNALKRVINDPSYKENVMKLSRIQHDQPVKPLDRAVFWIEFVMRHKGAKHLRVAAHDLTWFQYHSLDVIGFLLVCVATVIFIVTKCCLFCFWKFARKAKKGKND
Protocol: (§4) The inhibitory effect of APINACA and typical UGT inhibitors on UGT1A1, UGT1A3, UGT1A4, UGT1A6, UGT1A9, and UGT2B7 were evaluated following our previous method by LC–MS/MS after incubation of ultrapooled human liver microsomes with a cocktail of UGT substrates [44]. […] The reactions were initiated by adding UDPGA, and the incubation continued for 60 min at 37 °C in a shaking water bath. The reactions were terminated by adding 50 μL of ice-cold acetonitrile containing internal standards (propofol glucuronide for chenodeoxycholic acid 24-acyl-β-glucuronide and mycophenolic acid glucuronide; and meloxicam for SN-38 glucuronide, trifluoperazine glucuronide, N-acetylserotonin β-D-glucuronide, and naloxone 3-β-D-glucuronide). The incubation mixtures were centrifuged at 13,000× g for 8 min at 4 °C. Next, 50 μL of each supernatant of A and B set was mixed, and aliquots (5 μL) were analyzed by LC–MS/MS. All assays were performed in triplicate, and the average values were used in calculations.

OCT1 = biological target: T2, OCT1 (Homo sapiens, UniProt O15245); assay: Uptake of [3-H]methyl-4-phenylpyridinium in HEK293-OCT1 cells; assay type: in vitro ADME
T2 construct: host or cells: HEK293 (transient overexpression)
T2 sequence (O15245 1-554): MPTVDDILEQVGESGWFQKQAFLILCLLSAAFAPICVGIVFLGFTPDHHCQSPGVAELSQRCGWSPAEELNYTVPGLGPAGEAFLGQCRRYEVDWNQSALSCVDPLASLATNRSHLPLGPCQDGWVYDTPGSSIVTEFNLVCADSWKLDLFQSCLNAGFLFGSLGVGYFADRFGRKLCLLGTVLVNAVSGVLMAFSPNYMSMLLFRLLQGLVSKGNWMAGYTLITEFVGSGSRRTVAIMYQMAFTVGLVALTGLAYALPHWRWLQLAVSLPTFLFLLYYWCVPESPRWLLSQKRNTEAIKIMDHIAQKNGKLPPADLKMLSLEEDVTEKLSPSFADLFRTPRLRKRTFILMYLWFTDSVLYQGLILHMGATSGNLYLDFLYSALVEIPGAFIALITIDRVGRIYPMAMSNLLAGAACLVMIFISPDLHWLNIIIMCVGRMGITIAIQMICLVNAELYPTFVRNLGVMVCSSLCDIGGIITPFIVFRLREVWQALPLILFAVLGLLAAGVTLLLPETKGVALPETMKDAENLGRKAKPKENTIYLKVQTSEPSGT
Protocol: To examine the effects of APINACA and typical inhibitors on transporter activity, the uptake of a probe substrate into HEK293 cells overexpressing the respective solute carrier transporters was measured in the presence of APINACA (final concentrations of 0–250 μM) or typical inhibitors for 5 min. The concentrations and probe substrates were selected as follows: 0.1 μM [3-H]MPP^+ (for OCT1 and OCT2), 0.1 μM [3-H]PAH (for OAT1), 0.1 μM [3-H]ES (for OAT3 and OATP1B1), and 0.1 μM [3-H]EG (for OATP1B3).
as §1

CYP2D6 = CYP2D6 (Homo sapiens, UniProt P10635); assay: Inhibition of CYP2D6-mediated bufuralol 1′-hydroxylase in ultrapooled human liver microsomes; assay type: in vitro ADME
CYP2D6, sequence (P10635 whole entry): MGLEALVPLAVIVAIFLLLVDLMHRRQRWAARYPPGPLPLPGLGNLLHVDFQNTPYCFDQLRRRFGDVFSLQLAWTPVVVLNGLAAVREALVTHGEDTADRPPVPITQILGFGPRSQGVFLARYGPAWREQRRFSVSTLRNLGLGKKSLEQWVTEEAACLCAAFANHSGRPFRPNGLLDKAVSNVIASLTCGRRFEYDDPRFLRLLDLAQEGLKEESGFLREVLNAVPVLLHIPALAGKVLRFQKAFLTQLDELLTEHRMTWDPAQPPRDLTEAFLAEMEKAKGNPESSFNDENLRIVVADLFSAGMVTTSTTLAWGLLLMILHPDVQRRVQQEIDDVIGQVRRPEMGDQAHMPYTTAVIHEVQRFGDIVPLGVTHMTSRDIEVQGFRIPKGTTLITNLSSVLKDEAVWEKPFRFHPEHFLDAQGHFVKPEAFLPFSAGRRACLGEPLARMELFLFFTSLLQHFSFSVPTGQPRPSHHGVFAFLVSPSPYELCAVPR
Protocol: (§2) The inhibitory potentials (IC50 values) of APINACA and typical CYP inhibitors on CYP 1A2, 2A6, 2C8, 2C9, 2C19, 2D6, and 3A4 activities in pooled human liver microsomes were evaluated following our previous method using a cocktail of CYP substrates, followed by LC–MS/MS [43]. […] After 3 min of preincubation at 37 °C, the reaction mixtures were incubated for 15 min at 37 °C with the addition of NADPH in a shaking water bath. The reaction was stopped by adding 100 μL of ice cold methanol containing internal standards (d9-1′-hydroxybufuralol for 1′-hydroxybufuralol, 4′-hydroxydiclofenac, 7-hydroxycoumarin, 1′-hydroxymidazolam, and 4′-hydroxymephenytoin; ^13C2, ^15N-acetaminophen for acetaminophen and N-desethylamodiaquine). The incubation mixtures were centrifuged at 13,000× g for 8 min at 4 °C, and 50 μL of each supernatant was diluted with 50 μL of water. Aliquots (5 μL) of the diluted supernatants were analyzed by LC–MS/MS. All assays were performed in triplicate, and the average values were used for subsequent calculations.
To measure the time-dependent inhibition, human liver microsomes were preincubated with the various concentrations of APINACA (final concentrations of 0.1−100 μM) and NADPH for 30 min at 37 °C. Next, the reaction mixtures were incubated with a seven-CYP probe substrate cocktail or bupropion for 15 min at 37 °C. […]

UGT1A4 = UGT1A4 (Homo sapiens, UniProt P22310); assay: Inhibition of UGT1A4-catalyzed trifluoperazine N-glucuronidation in human liver microsomes
UGT1A4, sequence (P22310 29-534): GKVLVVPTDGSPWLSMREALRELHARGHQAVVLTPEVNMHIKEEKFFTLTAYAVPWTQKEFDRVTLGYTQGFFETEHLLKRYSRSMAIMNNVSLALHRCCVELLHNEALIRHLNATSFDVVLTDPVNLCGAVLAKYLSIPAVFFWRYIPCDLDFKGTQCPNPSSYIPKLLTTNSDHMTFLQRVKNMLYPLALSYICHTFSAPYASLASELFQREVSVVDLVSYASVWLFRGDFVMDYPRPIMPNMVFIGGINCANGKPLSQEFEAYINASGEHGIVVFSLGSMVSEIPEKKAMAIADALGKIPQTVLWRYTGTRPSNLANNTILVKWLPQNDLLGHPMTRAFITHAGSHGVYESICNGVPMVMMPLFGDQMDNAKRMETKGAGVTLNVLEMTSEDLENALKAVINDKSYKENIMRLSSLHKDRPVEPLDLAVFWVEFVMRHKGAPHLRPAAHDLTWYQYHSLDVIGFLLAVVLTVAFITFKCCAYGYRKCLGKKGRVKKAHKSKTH
Protocol: The inhibitory effect of APINACA and typical UGT inhibitors on UGT1A1, UGT1A3, UGT1A4, UGT1A6, UGT1A9, and UGT2B7 were evaluated following our previous method by LC–MS/MS after incubation of ultrapooled human liver microsomes with a cocktail of UGT substrates. […] The reactions were initiated by adding UDPGA, and the incubation continued for 60 min at 37 °C in a shaking water bath. The reactions were terminated by adding 50 μL of ice-cold acetonitrile containing internal standards (propofol glucuronide for chenodeoxycholic acid 24-acyl-β-glucuronide and mycophenolic acid glucuronide; and meloxicam for SN-38 glucuronide, trifluoperazine glucuronide, N-acetylserotonin β-D-glucuronide, and naloxone 3-β-D-glucuronide). The incubation mixtures were centrifuged at 13,000× g for 8 min at 4 °C. Next, 50 μL of each supernatant of A and B set was mixed, and aliquots (5 μL) were analyzed by LC–MS/MS. All assays were performed in triplicate, and the average values were used in calculations.
To measure the time-dependent inhibition, human liver microsomes were preincubated with the various concentrations of APINACA (final concentrations of 0.1–100 μM) and UDPGA for 30 min at 37 °C. Next, the reaction mixtures were incubated with UGT probe substrate cocktail sets for 60 min at 37 °C. The control reaction was performed by adding methanol instead of the test compounds.
(§3) 1.1 (Systat Software, Inc.).

UGT1A3 = UGT1A3 (Homo sapiens, UniProt P35503); assay: Inhibition of UGT1A3-catalyzed chenodeoxycholic acid 24-acyl-β-glucuronidation in human liver microsomes; assay type: in vitro ADME
UGT1A3, sequence (P35503 29-534): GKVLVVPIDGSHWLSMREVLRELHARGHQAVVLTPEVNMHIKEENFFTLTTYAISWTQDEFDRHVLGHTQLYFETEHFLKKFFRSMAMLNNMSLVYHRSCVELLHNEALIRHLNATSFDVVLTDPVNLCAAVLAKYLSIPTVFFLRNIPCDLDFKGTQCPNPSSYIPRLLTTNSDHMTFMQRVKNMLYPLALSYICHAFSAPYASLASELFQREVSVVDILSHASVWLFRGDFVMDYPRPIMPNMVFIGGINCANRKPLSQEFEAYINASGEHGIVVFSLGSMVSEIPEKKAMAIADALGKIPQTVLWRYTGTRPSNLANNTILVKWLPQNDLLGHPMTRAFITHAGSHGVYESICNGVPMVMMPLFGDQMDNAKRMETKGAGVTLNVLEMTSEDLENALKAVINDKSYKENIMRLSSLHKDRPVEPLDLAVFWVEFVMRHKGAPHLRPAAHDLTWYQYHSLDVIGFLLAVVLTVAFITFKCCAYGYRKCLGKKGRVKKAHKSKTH
Protocol: as §4

CYP3A4 [2] = biological target: T1, CYP3A4; assay: Inhibition of CYP3A4-mediated midazolam 1′-hydroxylase in ultrapooled human liver microsomes; assay type: in vitro ADME; conditions: for IC50: CYP3A4 midazolam 1′-hydroxylase
Protocol: as §2
To measure the time-dependent inhibition, human liver microsomes were preincubated with the various concentrations of APINACA (final concentrations of 0.1−100 μM) and NADPH for 30 min at 37 °C. Next, the reaction mixtures were incubated with a seven-CYP probe substrate cocktail or bupropion for 15 min at 37 °C. The control reaction was performed by adding methanol instead of the test compounds.
The column and autosampler temperatures were 40 °C and 4 °C, respectively.
The data were processed using Mass Hunter software (Agilent Technologies).
as §3

Compound: CCCCCn1nc(C(=O)NC23CC4CC(CC(C4)C2)C3)c2ccccc21 [APINACA, N-(1-adamantyl)-1-pentyl-1H-indazole-3-carboxamide]
- inactivation efficiency (kinact/Ki) for time-dependent inhibition of CYP3A4 (CYP3A4 [1]; human liver microsomes): 173 M⁻¹ s⁻¹
- kinact (CYP3A4 [1]; pH 7.4, probe midazolam 2 μM (1′-hydroxylation), ultrapooled human liver microsomes, time-dependent inhibition, read-out: kinact for time-dependent inhibition of CYP3A4-catalyzed midazolam 1′-hydroxylase (converted)): 0.000781 s⁻¹
- IC50 (UGT2B7): > 100 µM
- IC50 (UGT2B7; read-out: IC50 UGT2B7 naloxone 3-β-D-glucuronidation, with 30-min preincubation, pooled human liver microsomes, 30-min preincubation with UDPGA (○)): > 100 µM
- IC50 (OCT1): > 250 µM
- IC50 (CYP2D6): > 100 µM
- IC50 (CYP2D6; read-out: IC50 (μM) With Preincubation, CYP2D6 bufuralol 1′-hydroxylase, ultrapooled human liver microsomes, 30-min preincubation with NADPH): > 100 µM
- IC50 (UGT1A4): > 100 µM
- IC50 (UGT1A4; read-out: IC50 UGT1A4 trifluoperazine N-glucuronidation, with 30-min preincubation, pooled human liver microsomes, 30-min preincubation with UDPGA (○)): > 100 µM
- IC50 (UGT1A3): > 100 µM
- IC50 (UGT1A3; read-out: IC50 UGT1A3 chenodeoxycholic acid glucuronidation, with 30-min preincubation, pooled human liver microsomes, 30-min preincubation with UDPGA (○)): > 100 µM
- IC50 (CYP3A4 [2]; IC50 (μM) No Preincubation, 2.5 μM midazolam, no preincubation): 16.9 µM
- IC50 (CYP3A4 [2]; IC50 (μM) With Preincubation, 30-min preincubation with NADPH): 4.2 µM
- fold lower IC50 of CYP3A4 midazolam 1′-hydroxylase after 30-min preincubation than with no preincubation (CYP3A4 [2]; NADPH): ca. 4 fold
